The record followed here is patent publication EP2886536A1 (priority 2013, dated 2015).

By IC50 is commonly meant the concentration at which inhibition is half-maximal. Broadly, the half-life is the time needed for the level to fall by half in the phase considered.

For data set [1], the system named is HEL 92.1.7. Briefly: cells. The class given is cell-based. Conditions: Homo sapiens, HEL 92.1.7, 96 h, read-out: IC50 values.
A short description of data set [2]: physchem. Conditions: buffer, pH 7.2.
The nature of data set [3]: in vitro. Conditions: human, plasma.
The subject of data set [4] is NCl-H460. Briefly: cells. The class given is cell-based. Conditions: 96 h, read-out: IC50 values.
Data set [5] relates to Capan-1. Put plainly: cells. The class given is cell-based. Conditions: Homo sapiens, CAPAN-1, 96 h, read-out: IC50 values.
The subject of data set [6] is HT-29. Put plainly: cells. In kind it is cell-based. Conditions: Homo sapiens, HT-29, 96 h, read-out: IC50 values.
Data set [7] deals with LnCap clone FGC. Put plainly: cells. In kind it is cell-based. Conditions: Homo sapiens, 96 h, read-out: IC50 values.
Data set [8] relates to SK-Mel3. Put plainly: cells. In kind it is cell-based. Conditions: Homo sapiens, SK-MEL3, 96 h, read-out: IC50 values.
Data set [9] concerns Jurkat. Briefly: cells. Conditions: Homo sapiens, 96 h, read-out: IC50 values. The class given is cell-based.
The subject of data set [10] is U-937. Briefly: cells. The class given is cell-based. Conditions: Homo sapiens, U-937, 96 h, read-out: IC50 values.
Data set [11] has as its system MG-63. Briefly: cells. The class given is cell-based. Conditions: Homo sapiens, MG-63, 96 h, read-out: IC50 values.
Data set [12] is described as follows: in vitro. Conditions: mouse, plasma.
For data set [13], the system named is SK-ES1. Briefly: cells. The class given is cell-based. Conditions: Homo sapiens, SK-ES1, 96 h, read-out: IC50 values.

Where a name gives a salt, the structure may show the parent alone.

As to `CCOC(=O)CCCc1nc2ccc(N(CCCl)CCCl)cc2n1C` [iso-bendamustine ethyl ester, ethyl 4-{6-[bis(2-chloroethyl)amino]-1-methyl-1H-benzimidazol-2-yl}butanoate], the IC50 in data set [1] worked out at 3.5 ± 0.3 µM; in data set [4], 5.4 ± 0.2 µM; in data set [5] it was 0.91 ± 0.15 µM; in data set [6], 11 ± 1.1 µM; in [7], 1.5 ± 0.34 µM; in data set [8], 11.7 ± 2.5 µM. Further, the IC50 in data set [9] came to 3.9 ± 0.3 µM; in data set [10], 1.6 ± 0.03 µM; in [11], 1.9 ± 0.1 µM; in data set [13], 0.24 ± 0.04 µM. Besides, the results for the half-life in data set [2], in data set [3] and in [12] were 15.3 ± 3.8 min, 141 ± 6.3 min and < 2 min, respectively.
As for `Cl.Cn1c(CCCC(=O)O)nc2ccc(N(CCCl)CCCl)cc21` [iso-bendamustine-HCl, 4-{6-[bis(2-chloroethyl)amino]-1-methyl-1H-benzimidazol-2-yl)butanoic acid hydrochloride], the IC50 in [1] was 76.5 ± 4.5 µM; in data set [4], > 100 µM; in [5], 24.6 ± 4.4 µM; in [6], > 100 µM; in data set [7], 18.9 ± 2.6 µM; in data set [8] it was > 100 µM. Further, the IC50 came to 59.5 ± 4 µM in [9], 59.8 ± 5.2 µM in [10], 50.1 ± 5.5 µM in data set [11] and 9.6 ± 1.5 µM in data set [13]. Also, the half-life in data set [2] turned out to be 11.6 ± 1.9 min; in [3], 83.8 ± 9.3 min; in data set [12], 60.5 ± 2.7 min.
`Cn1c(CCCC(=O)O)nc2cc(N(CCCl)CCCl)ccc21` [bendamustine-HCl, 4-{5-[bis(2-chloroethyl)amino]-1-methyl-1H-benzimidazol-2-yl}butanoic acid, reference compound]: the half-maximal inhibitory concentration (IC50) in [1] was 84 ± 7.7 µM; in [4], 89.5 ± 10.4 µM; in [5], 25.2 ± 5.4 µM; in data set [6] it was > 100 µM; in [7], 71.6 ± 5.4 µM; in data set [8], > 100 µM. Also, the IC50 in [9] amounted to 42.6 ± 5.6 µM; in data set [10], 91.9 ± 16.4 µM; in data set [11] it was 55 ± 3.3 µM; in data set [13], 11 ± 1.6 µM. In addition, the half-life was found to be 10.8 ± 2.9 min in [2], 131 ± 10.2 min in data set [3] and 35 ± 2.2 min in data set [12].
